Patent publication EP0289450A1, “15-Alkyl-19-thio-androst-4-en-3,17 diones, process for their preparation and pharmaceutical compositions containing them” (SCHERING AKTIENGESELLSCHAFT, priority 1987, dated 1988)

Biological target: T1, Aromatase (Rattus norvegicus, UniProt P22443)
T1 construct: Infantile weibliche Ratten reagieren auf PMSG-Behandlung mit einheitlich erhöhter Steroidsynthese; from tissue; host or cells: living infantile female rats (whole animal); estradiol measured in serum by radioimmunoassay
T1 sequence (P22443 1-508): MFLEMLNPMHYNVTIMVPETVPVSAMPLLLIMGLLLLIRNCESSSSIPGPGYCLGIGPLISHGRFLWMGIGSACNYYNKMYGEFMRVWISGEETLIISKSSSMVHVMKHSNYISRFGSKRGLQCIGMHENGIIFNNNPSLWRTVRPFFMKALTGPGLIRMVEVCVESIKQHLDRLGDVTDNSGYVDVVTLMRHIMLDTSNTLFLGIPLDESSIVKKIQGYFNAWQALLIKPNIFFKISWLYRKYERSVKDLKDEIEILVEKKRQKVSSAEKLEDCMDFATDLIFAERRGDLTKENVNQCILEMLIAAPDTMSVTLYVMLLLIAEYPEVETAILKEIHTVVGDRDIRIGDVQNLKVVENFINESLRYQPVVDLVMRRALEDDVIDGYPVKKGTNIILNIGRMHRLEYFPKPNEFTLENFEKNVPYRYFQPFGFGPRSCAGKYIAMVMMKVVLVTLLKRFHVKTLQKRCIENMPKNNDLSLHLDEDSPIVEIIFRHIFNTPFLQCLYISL
Experiment: PMSG (Pregnant Mare's Serum Gonadotropin) test: effect on PMSG-stimulated serum estradiol after oral application
Type: in vivo, Ratte
Settings: 10 mg/Tier 2 x p.o.; for Östradiol-Konzentration in: peripheral serum of PMSG-pretreated infantile female rats, 24 h after last PMSG application, mean ± standard deviation, n = 10; for relative Wirkstärke: relative potency versus compound A (= 1,0), by regression and covariance analysis, rat
Source text: So konnte zum Beispiel im sogenannten PMSG (Pregnant Mare's Serum Gonadotropin)-Test [J. Steroid. Biochem. 7, (1976) 787] gezeigt werden, daß im Vergleich zu dem bekannten Aromatasehemmer 19-Methylthio-4-androsten-3,17-dion (A) die erfindungsgemäßen Verbindungen, wie zum Beispiel 15α-Ethyl-19-methylthio-4-androsten-3,17-dion (B), bei oraler Applikation eine stärkere Wirkung besitzen.
Infantile weibliche Ratten reagieren auf PMSG-Behandlung mit einheitlich erhöhter Steroidsynthese. Die Aromataseaktivität kann durch die Beeinflussung der PMSG-stimulierten Östrogenbildung gemessen werden.
Im PMSG-Test werden 21 Tage alte weibliche Ratten alle 2 Tage insgesamt 7 mal mit je 100 I.U. PMSG subkutan vorbehandelt. 1 Stunde vor und 8 Stunden nach der letzten PMSG-Applikation (d₁₂) erhalten die Tiere die Testsubstanz durch orale Applikation.
Die Kontrolltiere erhalten nur das Vehikel. 24 Stunden nach der letzten PMSG-Applikation werden die Tiere getötet. Im Serum wird Östradiol radioimmunologisch geprüft. Für jede Gruppe von 10 Tieren wird der Mittelwert der Östradiolkonzentration in nMol/l mit der Standardabweichung errechnet. Die Signifikanzen der Unterschiede zur Kontrollgruppe werden durch die Varianzanalyse geprüft.
Zur Ermittlung der relativen Wirkungsstärke der zu testenden Substanz im Vergleich zu der Vergleichssubstanz wird die Regressions- und Kovarianzanalyse durchgeführt. Ferner wird die prozentuale Hemmung gegen die PMSG-Kontrolle berechnet.

Compound	Östradiol-Konzentration in	relative Wirkstärke
CSC[C@]12CCC(=O)C=C1CC[C@@H]1[C@@H]2CC[C@]2(C)C(=O)CC[C@@H]12 [A, 19-Methylthio-4-androsten-3,17-dion]	5,50 ± 0,43 nMol/l	1,0
CC[C@H]1CC(=O)[C@@]2(C)CC[C@H]3[C@@H](CCC4=CC(=O)CC[C@@]43CSC)[C@H]12 [B, 15α-Ethyl-19-methylthio-4-androsten-3,17-dion]	4,05 ± 0,36 nMol/l	3,2
